Earlier results on one compound are cited in EP4488277A1, “NOVEL BISPIDINE-BASED METAL CHELATING LIGANDS DISPLAYING GOOD RELAXIVITY” (Université de Strasbourg, priority 2023, dated 2025).

SMILES strings stand for the structures.

The conditions of the series: pH of 7.4, 60 MHz, 25°C.

Turning to `CNC[C@H](O)[C@@H](O)[C@H](O)[C@H](O)CO.O=C([O-])CN1CCN(CC(=O)[O-])CCN(CC(=O)O)CCN(CC(=O)[O-])CC1.[Gd+3]` [Dotarem®, gadoterate meglumine], the “relaxivity r1” value is 3.7 mM⁻¹ s⁻¹.
